{"source": "patent US10980910B2", "about": "“Apparatus and methods for ozone generation and degradation” (Gene Therapy Systems, Inc., priority 2013, dated 2021)", "key": {"bacteriophage T1": {"tested_on": "bacteriophage T1", "assay": "Effect of ozone on bacteriophage T1 spotted on LB agar plates", "format": "cell-based", "conditions": "spots of 10^9 to 10^6 pfu/mL; ozone 4 hours, peak less than 150 ppm; silver-coated mesh generator; DH5 E. coli overlay, 72 hours at room temperature", "method": "In Experiment 2, the effect of ozone on bacteriophage T1 was studied. In the experiment, 2.5 μL of purified bacteriophage T1 was spotted in four quadrants of two LB agar plates—a test plate 610 and a control plate 620, shown in FIG. 6. The bacteriophage concentrations on each of the two plates were (clockwise from the spot in the upper right quadrant): 10^9 pfu/mL, 10^8 pfu/mL, 10^7 pfu/mL, and 10^6 pfu/mL.\nThe test plate 610 was placed in an incubator chamber containing both an ozone generator and an ozone degrader. The ozone generator included two ceramic plates surrounded substantially by a silver-coated metal mesh. The ozone generator was activated and the test plate 610 was treated with ozone for 4 hours. The ozone generator was then turned off, and the ozone degrader, formed of activated carbon filters, accelerated the conversion of ozone to oxygen. The peak ozone concentration level generated within the incubator chamber was less than 150 ppm ozone.\nThe control plate 620 was placed in a different incubator chamber and left untreated. After the ozone generation and degradation cycle completed in the incubator chamber containing the test plate 610, 1 mL of stationary DH5 E. coli bacteria and top agar were added to each plate and incubated at room temperature for 72 hours. The photograph 600 in FIG. 6 was taken immediately following this 72-hour period."}, "humans": {"tested_on": "humans", "conditions": "OSHA limit, per workday; cited from earlier work"}, "[1]": {"assay": "Ozone breakdown in enclosed cell culture chamber, monitored with calibrated ozone analyzer", "format": "physicochemical", "method": "In Experiment 1, an 1800 mg/hour ozone generator was placed in a 5.5 cubic feet cell culture. The ozone level within the chamber was monitored using a calibrated ozone analyzer. Ozone measurements were captured every 10 seconds. The experimental results, as represented by ozone level over time, are provided in the line graph 500 of FIG. 5A. In test #1, represented by line 510, the ozone generator was run for 80 minutes and achieved a peak ozone concentration within the cell culture chamber of approximately 325 ppm. After the ozone generator was turned off, the ozone was left to break down naturally within the enclosed cell culture chamber. It took approximately 28 hours for the ozone to breakdown to 0.01 ppm ozone.\nIn tests #2 and #3, represented by lines 520 and 530, respectively, both the ozone generator and an ozone degrader were present in the cell culture chamber. The ozone degrader was formed of three activated carbon filters. With the ozone degrader present, the ozone generator was unable to achieve the peak ozone concentration seen in test #1. In tests #2 and #3, the ozone generator was run for 120 minutes and the concentration of ozone noticeably plateaued. The air within the cell culture chamber reached a peak ozone concentration of approximately 140-150 ppm ozone. […]"}, "[2]": {"conditions": "cited from earlier work"}, "[3]": {"tested_on": "E. coli K-12 cells (strain DH5)", "assay": "Sterilization efficacy on LB agar plates loaded with E. coli, ozone generation and degradation cycle in cell culture chamber", "format": "cell-based", "conditions": "test #2 dish; approx. 1.5×10^8 cells plated; ozone 120 minutes plus 15 minutes degradation; peak approx. 140-150 ppm ozone; plates incubated at 37° C. overnight", "method": "In tests #2 and #3, represented by lines 520 and 530, respectively, both the ozone generator and an ozone degrader were present in the cell culture chamber. The ozone degrader was formed of three activated carbon filters. With the ozone degrader present, the ozone generator was unable to achieve the peak ozone concentration seen in test #1. In tests #2 and #3, the ozone generator was run for 120 minutes and the concentration of ozone noticeably plateaued. The air within the cell culture chamber reached a peak ozone concentration of approximately 140-150 ppm ozone. After the ozone generator was turned off, the ozone began to break down at an accelerated rate with the activated carbon filters present. In both tests #2 and #3, the ozone levels reached a level of 0.01 ppm ozone within 15 minutes.\nWhile the peak ozone concentrations reached in tests #2 and #3 were noticeably lower than the peak ozone concentration of test #1, the ozone levels in tests #2 and #3 were at least sufficient to achieve sterilization. In each of tests #2 and #3, sterilization efficacy was measured with the assistance of LB agar plates loaded with E. coli bacteria. […] The quantity of E. coli present was then analyzed and a photograph of each plate was taken. […] In the test dish 550, a 100% E. coli kill rate was observed; no E. coli was detected."}}, "note": "Like-named read-outs stand apart in the source and are kept apart here.", "data": [{"compound": "O=[O+][O-]", "note": "[ozone]", "values": [{"measurement": "survival of the T1-phage", "setting": "bacteriophage T1", "value": "negligible survival"}, {"measurement": "acceptable ozone exposure in the workplace", "setting": "humans", "value": "under 0.1 ppm"}, {"measurement": "time for the ozone to breakdown to 0.01 ppm ozone", "setting": "[1]; test #1, natural breakdown, no degrader, from peak approx. 325 ppm, 5.5 cubic feet chamber", "value": "approximately 28 hours"}, {"measurement": "time for ozone levels to reach 0.01 ppm ozone", "setting": "[1]; tests #2 and #3, three activated carbon filters as ozone degrader, from peak approx. 140-150 ppm", "value": "≤ 15", "unit": "min"}, {"measurement": "half-life", "setting": "[2]; in the air", "value": "36 to 72", "unit": "h"}, {"measurement": "half-life", "setting": "[2]; in water", "value": "0.13 to 0.5", "unit": "h"}, {"measurement": "E. coli kill rate", "setting": "[3]", "value": 100, "unit": "%"}]}]}
